Laboratory results from patent US9340505B2, “Type III secretion inhibitors, analogs and uses thereof” (priority 2007, dated 2016).
Entries after “also recorded” stand apart in the source; their conditions may differ. Like-named read-outs stand apart in the source and are kept apart here.

How the values were obtained:
bacterial T3S = details: cited from earlier work
[1] = test system: T3S mediated cytotoxic response of HeLa cells infected by Y. pestis
YopE-B1a secretion = test: microbe, parasite or virus in culture; type: cell-based, Y. pestis; details: for IC50 / inhibition at 60 µM: Yersinia pestis
HeLa cells = test: Cytotoxicity of compounds, Lactate Dehydrogenase (LDH) assay; details: 60 μM
YopH secretion = type: cell-based, Y. pestis
[2] = test system: YopE-B1a translocation to HeLa cells; test: cells; type: cell-based, Y. pestis
secretion of Yops = type: cell-based, Y. pestis
Y. pestis = type: cell-based
Y. pestis JG401 = type: cell-based
T3S = details: read-out: IC50 as T3S inhibitor in Y. pseudotuberculosis; cited from earlier work
[3] = read-out: IC50 (μM) of YopE secretion, round 3 lead 1 analogs
[4] = read-out: IC50 of YopE secretion (Table 13)
[5] = read-out: Mean Inhibition (%) (3rd round compound 3 analogs)

For CCCCCCCCC[C@H](CCCCCCCC(C)=O)O[C@@H]1O[C@H](CO)[C@@H](O)[C@H](O)[C@H]1O[C@@H]1O[C@H](CO[C@@H]2O[C@H](C)[C@H](O)[C@H](O)[C@@H]2O)[C@@H](OC(C)=O)[C@H](OC(=O)CCC)[C@H]1O[C@@H]1O[C@@H](C)[C@H](O)[C@@H](O)[C@@H]1O [Caminoside A], the “activity in screen for bacterial T3S inhibitors” value (bacterial T3S) is listed as “potent activity”.

In the case of Cl.O=C(Nc1cccc(Cl)c1)Nc1cccc(C2=NCCN2)c1 [Compound 1, 1-(3-chlorophenyl)-3-(3-(4,5-dihydro-1H-imidazol-2-yl)phenyl) urea hydrochloride], the “inhibition of T3S mediated cytotoxic response (morphological change)” value (from here on “inhibition … (morphological change)”) [1] is reported as “inhibited the cytotoxic response”.

For Cc1ccc(CSc2nc(C(=O)O)ccc2C#N)cc1 [Compound 1, 2-Pyridinecarboxylic acid, 5-cyano-6-[[(4-methylphenyl)methyl]thio]-], the IC50 (YopE-B1a secretion; [3]) was less than 15 µM and the IC50 (YopE-B1a secretion; [4]) was greater than 60 µM.

For Oc1ccc(Oc2ccc(O)cc2)cc1 [Compound 2-3], the “cytotoxicity of analogs to HeLa cells (in words)” value (HeLa cells) was “significant decrease in cytotoxicity; also recorded: overcame the cytotoxicity”, the “activity against YopH secretion (in words)” value (YopH secretion) was “showed activity” and the “concentration dependent T3S inhibition (in words)” value (YopH secretion) was “retained inhibitory activity”.

For Nc1cc(Oc2ccc(O)c(N)c2)ccc1O [Compound 2-4], the “cytotoxicity of analogs to HeLa cells (in words)” value (HeLa cells) was “significant decrease in cytotoxicity”.

In the case of CCC(=O)O.CCC(=O)O.O=C(Nc1cccc(C2=NCCN2)c1)Nc1cccc(C2=NCCN2)c1 [Compound 3 dipropionate, propanoic acid, compd. with N,N′-bis[3-(4,5-dihydro-1H-imidazol-2-yl)phenyl]urea (2:1)], the “inhibition of YopE-B1a translocation (in words)” value ([2]; 80 μM) is reported as “completely inhibited” and the inhibition at 40 µM ([2]; Yersinia pestis, HeLa, 40 μM) is reported as 50%.

With Cl.N#Cc1cccc(NC(=O)Nc2cccc(C3=NCCN3)c2)c1 [Compound 3] the “inhibition … (morphological change)” value [1] was “inhibited the cytotoxic response”.

With CC(=O)c1ccc(NC(=O)Nc2cccc(C3=NCCN3)c2)cc1.Cl [Compound 4, 1-(4-acetylphenyl)-3-(3-(4,5-dihydro-1H-imidazol-2-yl)phenyl)urea hydrochloride] the “inhibition … (morphological change)” value [1] was “inhibited the cytotoxic response”.

With Cc1ccc(-c2nn(-c3ccccc3)cc2C2CC(c3cccs3)=NN2C(=O)CCC(=O)O)cc1 (centres unmarked) [Compound 4-5] the “activity against YopH secretion (in words)” value (YopH secretion) was “showed activity”.

With Cc1ccc(-c2nn(-c3ccccc3)cc2C2CC(c3ccccc3)=NN2C(=O)CCC(=O)O)cc1 (centres unmarked) [Compound 4-6] the “activity against YopH secretion (in words)” value (YopH secretion) was “showed activity”.

With O=C(N/N=C/c1cc(Br)cc(Br)c1O)c1ccc([N+](=O)[O-])cc1 [INP0007] the “inhibition of secretion of Yops (in words)” value (secretion of Yops) was “inhibited secretion of Yops”, the “inhibition of Y. pestis growth” value (Y. pestis) was “completely inhibited” and the “promotion of Y. pestis growth at 37° C. in the absence of Ca2+” value (Y. pestis JG401) was “did not promote the growth”. For the same compound, the IC50 (T3S) was 50 µM.

N#Cc1ccc(C(=O)O)nc1SCc1ccc(Cl)cc1 [MC1_1-1, 6-(4-chlorobenzylthio)-5-cyanopicolinic acid] gave an IC50 (YopE-B1a secretion; [4]) of 20 µM.

In the case of N#Cc1ccc(C(=O)O)nc1SCc1ccccc1 [MC1_1-2, 6-(benzylthio)-5-cyanopicolinic acid], the IC50 (YopE-B1a secretion; [4]) is reported as 60 µM.

In the case of COc1ccc(CSc2nc(C(=O)O)ccc2C#N)cc1 [MC1_1-3, 5-cyano-6-(4-methoxybenzylthio) picolinic acid], the IC50 (YopE-B1a secretion; [4]) is reported as greater than 60 µM.

Compound N#Cc1ccc(C(=O)O)nc1SCc1cccc([N+](=O)[O-])c1 [MC1_1-4, 5-cyano-6-(3-nitrobenzylthio) picolinic acid] has an IC50 (YopE-B1a secretion; [4]) greater than 60 µM.

N#Cc1ccc(C(=O)O)nc1SCc1ccccc1Cl [MC1_1-5, 6-(2-chlorobenzylthio)-5-cyanopicolinic acid] gave an IC50 (YopE-B1a secretion; [4]) of no less than 60 µM.

N#Cc1ccc(C(=O)O)nc1SCc1ccc(C(F)(F)F)cc1 [MC1_1-8] showed an IC50 (YopE-B1a secretion; [4]) of 55 µM.

Compound N#Cc1ccc(C(=O)O)nc1SCc1ccc(OC(F)(F)F)cc1 [MC1_1-9, 5-cyano-6-(4-(trifluoromethoxy)benzylthio) picolinic acid] has an IC50 (YopE-B1a secretion; [4]) of 30 µM.

In the case of N#Cc1ccc(C(=O)O)nc1Sc1ccc(Cl)cc1 [MC1_2-3, 6-(4-chlorophenylthio)-5-cyanopicolinic acid], the IC50 (YopE-B1a secretion; read-out: IC50 (μM) of YopE secretion, 2nd round compound 1 analogs) is reported as less than 15 µM, the inhibition at 60 µM (YopE-B1a secretion; 60 μM, read-out: Mean Inhibition (%) of YopE-B1a secretion (Table 14)) is reported as 95.9% and the inhibition at 60 µM (YopE-B1a secretion; 60 μM, read-out: inhibition on YopE-B1a secretion) is reported as roughly 95%.

With CNC(=O)c1ccc(C#N)c(SCc2ccc(Cl)cc2)n1 [MC1_3-1] the “inhibitory activity on YopE-B1a secretion (in words)” value (from here on “inhibitory activity”) (YopE-B1a secretion) was “showed inhibitory activity” and the IC50 (YopE-B1a secretion; [3]) was less than 15 µM.

For COC(=O)c1ccc(C#N)c(SCc2ccc(Cl)cc2)n1 [MC1_3-2], the “inhibitory activity” value (YopE-B1a secretion) was “showed inhibitory activity” and the IC50 (YopE-B1a secretion; [3]) was 20 ± 5 µM.

For N#Cc1ccc(C(N)=O)nc1SCc1ccc(Cl)cc1 [MC1_3-3], the “inhibitory activity” value (YopE-B1a secretion) was “showed inhibitory activity” and the IC50 (YopE-B1a secretion; [3]) was 50 ± 5 µM.

For O=C(Nc1cccc(C2=NCCN2)c1)Nc1cccc([N+](=O)[O-])c1 [MC3_1-2], the “activity against YopH secretion (in words)” value (YopH secretion) was “showed inhibition” and the “concentration dependent T3S inhibition (in words)” value (YopH secretion) was “concentration dependent inhibitory activities”.

With N#Cc1cccc(NC(=O)Nc2cccc(C3=NCCN3)c2)c1 [MC3_1-3] the “concentration dependent T3S inhibition (in words)” value (YopH secretion) was “concentration dependent inhibitory activities”.

In the case of O=C(Nc1cccc(C2=NCCN2)c1)Nc1cccc(C(F)(F)F)c1 [MC3_1-9], the “concentration dependent T3S inhibition (in words)” value (YopH secretion) is reported as “concentration dependent inhibitory activities”.

With O=C(Nc1cccc(Br)c1)Nc1cccc(C2=NCCN2)c1 [MC3_1-10] the “concentration dependent T3S inhibition (in words)” value (YopH secretion) was “concentration dependent inhibitory activities”.

In the case of O=C(Nc1cccc(Cl)c1)Nc1cccc(C2=NCCN2)c1 [MC3_1-16], the “concentration dependent T3S inhibition (in words)” value (YopH secretion) is reported as “concentration dependent inhibitory activities”.

For FC(F)(F)c1cc(Nc2nc3cc(C4=NCCN4)ccc3o2)ccc1Cl [MC3_3-1], the inhibition at 60 µM (YopE-B1a secretion; [5]) was 69.8%.

With FC(F)(F)c1cc(Nc2nc3cc(C4=NCCCN4)ccc3o2)ccc1Cl [MC3_3-2] the inhibition at 60 µM (YopE-B1a secretion; [5]) was 49%.

Work on FC(F)(F)c1cc(Nc2nc3ccc(C4=NCCN4)cc3o2)ccc1Cl [MC3_3-3] yielded an inhibition at 60 µM (YopE-B1a secretion; [5]) of 103%.

For FC(F)(F)c1cc(Nc2nc3ccc(C4=NCCN4)cc3[nH]2)ccc1Cl [MC3_3-4], the inhibition at 60 µM (YopE-B1a secretion; [5]) was 0%.
